One series is described as follows: acute toxicity. Conditions: mouse, in vivo, ICR female mice, observed 7 days. The source says: Each of compounds according to the invention was suspended in 0.1% P-1570 aqueous solution of sugar ester or 0.5% CMC aqueous solution. The suspension abdominally or orally dosed to ICR female mice (weight: 20±1 g).
Series [1] concerns B-16 melanoma carcinoma (B-16). Kind of series: carcinoma cell weight inhibiting effect in mice (B-16). Format: in vivo. Conditions: BDF mice; oral, 1/5 LD50 one time/day for 5 days; 21 days from final dosage. From the text:
(§1) (4) B-16 melanoma carcinoma (hereinafter referred to as "B-16").
(§2) Test 2 (carcinoma cell weight inhibiting effect in mice)
(§3) B-16 and EAC were given to BDF and ICR-CD mice, respectively by a hypodermic injection. 1.0×10^5 cells on B-16 and 5.0×10^6 cells on EAC were given to each mouse. Each of the compounds according to the invention was orally dosed for 5 days in an amount of 1/5 LD50 (one time/day). After lapsed 21 days from the final dosage, the carcinoma of each mouse was exenterated, measured its weight and calculated a mean weight as the inhibiting ratio which is shown in the following Table.

Series [2] concerns Lewis lung carcinoma (LLC). Nature of the series: proliferation inhibiting effect in explantation (LLC). The settings on record: 72 h, 3 days culture with compound, living cells by dye-exclusion (tripan blue). Format: cell-based. The protocol:
(§4) Test 1 (proliferation inhibiting effect in explantation)
(§5) Following carcinomata are employed.
(1) Lewis lung carcinoma (hereinafter referred to as "LLC"),
(§6) 1×10^5 cells of each carcinoma are cultured for 24 hours in an ox serum eagle culture solution with use of a culture test tube and a carbon dioxide gas culturing device (5% CO2, 37° C.). After 24 hours, the used culture solution was flowed-out and each 0.1 ml of a freshly prepared culture solution containing a compound according to the invention was added to further continue the culture for 3 days. After completion of the culture, number of living cells was measured with use of a dye-exclusion method due to tripan blue dying. To each of control groups, 0.1 ml of the same culture solution but containing no compound according to the invention was added.
(§7) Concentrations on 50% inhibition of the carcinoma cells (IC50) were determined between the testing groups and control groups, according to the manner as stated above.

Series [3] has as its system Ehrlich ascites carcinoma (EAC). Kind of series: proliferation inhibiting effect in explantation (EAC). Format: cell-based. The settings on record: 72 h, 3 days culture with compound, living cells by dye-exclusion (tripan blue). The protocol: as §4, §5
(§8) (2) Ehrlich ascites carcinoma (hereinafter referred to as "EAC"),
as §6, §7

A further series relates to K.B. carcinoma (KB). Kind of series: proliferation inhibiting effect in explantation (KB). Format: cell-based. The settings on record: 72 h, 3 days culture with compound, living cells by dye-exclusion (tripan blue). How it is done:
as §4, §5
(3) K.B. carcinoma (hereinafter referred to as "KB"), and
as §6, §7

For series [4], the system named is B-16 melanoma carcinoma (B-16). Nature of the series: proliferation inhibiting effect in explantation (B-16). The class given is cell-based. Conditions: Mus musculus, B16, 72 h, 3 days culture with compound, living cells by dye-exclusion (tripan blue). How it is done:
as §4, §5, §1, §6, §7

The test system of series [5] is Ehrlich ascites carcinoma (EAC). Nature of the series: carcinoma cell weight inhibiting effect in mice (EAC). Format: in vivo. Conditions: ICR-CD mice; oral, 1/5 LD50 one time/day for 5 days; 21 days from final dosage.
From the text: as §8, §2, §3

The mark [6] stands for this setting: ip, abdominal dosage, read-out: Acute Toxicity LD50, Abdominal Dosage.
Where [7] appears, read: oral dosage, read-out: Acute Toxicity LD50, Oral Dosage.

Converted amounts (≈) assume the structure as drawn. Where two headings read alike, the source gives them in different places.

As usually defined, the LD50 is the dose at which mortality reaches 50%. Turning to `CNCCSCC[Si](C)(C)C` [SKK-009], the results for the LD50 at 168 h in “acute toxicity” (setting [6]) and in the series “acute toxicity” (setting [7]) were 189 mg/kg and 800 mg/kg, respectively.

For `C[Si](C)(C)CCSCCNC1CCCCC1` [SKK-010], the results for the LD50 at 168 h in the series “acute toxicity” (setting [6]) and in the series “acute toxicity” (setting [7]) were 152 mg/kg and 825 mg/kg, respectively.

Regarding `C=CCNCCSCC[Si](C)(C)C` [SKK-011], the figures for the LD50 at 168 h in the series “acute toxicity” (setting [6]) and in “acute toxicity” (setting [7]) were 134 mg/kg and 846 mg/kg, respectively.

What is called IC50 is the concentration needed to halve the response being measured. Regarding `C[Si](C)(C)CCSCCNC(=O)c1ccccc1` [SKK-012], the “inhibiting ratio (carcinoma weight), B-16” value (shortened to “inhibiting ratio … B-16”) in series [1] is 62. Also, the IC50 in series [2] came to 4.3 µg/mL (≈ 15.3 µM); in series [3], 15 µg/mL (≈ 53.3 µM); in the series on K.B. carcinoma (KB), 17 µg/mL (≈ 60.4 µM); in series [4], 16 µg/mL (≈ 56.8 µM). Also, the LD50 at 168 h in “acute toxicity” (setting [6]) is 1190 mg/kg; in the series “acute toxicity” (setting [7]), over 2000 mg/kg. For the same molecule, the “inhibiting ratio (carcinoma weight), EAC” value in series [5] came out at 76.

Take `C[Si](C)(C)CCSCCNC(=O)c1cccnc1` [SKK-021]: the “inhibiting ratio … B-16” value in series [1] came to 93. The IC50 in series [2] is 5 µg/mL (≈ 17.7 µM); in series [3], 12 µg/mL (≈ 42.5 µM); in the series with K.B. carcinoma (KB), 10 µg/mL (≈ 35.4 µM); in series [4], under 5 µg/mL. Also, the LD50 at 168 h is under 500 mg/kg in the series “acute toxicity” (setting [6]) and over 2000 mg/kg in “acute toxicity” (setting [7]). The “inhibiting ratio (carcinoma weight), EAC” value in series [5] is given as 70.

Take `C[Si](C)(C)CCSCCNC(=O)c1ccco1` [SKK-022]: the “inhibiting ratio … B-16” value in series [1] is on record as 58. Further, the IC50 in series [2] stood at 9 µg/mL (≈ 33.2 µM); in series [3] it was 15 µg/mL (≈ 55.3 µM); with K.B. carcinoma (KB) it was 17 µg/mL (≈ 62.6 µM); in series [4], 20 µg/mL (≈ 73.7 µM). For the same molecule, the LD50 at 168 h is under 1000 mg/kg in the series “acute toxicity” (setting [6]) and over 2000 mg/kg in “acute toxicity” (setting [7]). Further, in series [5], the “inhibiting ratio (carcinoma weight), EAC” value came to 65.

Consider `C[Si](C)(C)CCSCCNC(=O)c1cccs1` [SKK-023], for which the LD50 at 168 h was over 1000 mg/kg in “acute toxicity” (setting [6]) and over 2000 mg/kg in “acute toxicity” (setting [7]).

As to `C[Si](C)(C)CCSCCNC(=O)c1cccc2ccccc12` [SKK-024], the “inhibiting ratio … B-16” value in series [1] is 60. Further, the IC50 was found to be 13 µg/mL (≈ 39.2 µM) in series [2], 18 µg/mL (≈ 54.3 µM) in series [3], 14 µg/mL (≈ 42.2 µM) with K.B. carcinoma (KB) and 25 µg/mL (≈ 75.4 µM) in series [4]. Besides, the LD50 at 168 h in the series “acute toxicity” (setting [6]) is over 2000 mg/kg; in “acute toxicity” (setting [7]), over 3000 mg/kg. Also, in series [5], the “inhibiting ratio (carcinoma weight), EAC” value came out at 62.

In the case of `CC(=O)NCCSCC[Si](C)(C)C` [SKK-025], the results for the LD50 at 168 h in “acute toxicity” (setting [6]) and in “acute toxicity” (setting [7]) were about 100 mg/kg and 1000 to 2000 mg/kg, respectively.

For the molecule `C[Si](C)(C)CCSCCNC(=O)C1CCCCC1` [SKK-026], the LD50 at 168 h is 500 to 1000 mg/kg in “acute toxicity” (setting [6]) and 1000 to 2000 mg/kg in “acute toxicity” (setting [7]).

For the molecule `CCCCCCCC(=O)NCCSCC[Si](C)(C)C` [SKK-027], the LD50 at 168 h in “acute toxicity” (setting [6]) is 2000 to 3000 mg/kg; in “acute toxicity” (setting [7]) it was over 3000 mg/kg.

In the case of `Cc1ccc(S(=O)(=O)NCCSCC[Si](C)(C)C)cc1` [SKK-028], the “inhibiting ratio … B-16” value in series [1] stood at 85. The IC50 in series [2] was found to be 14 µg/mL (≈ 42.2 µM); in series [3] it was 30 µg/mL (≈ 90.5 µM); in the series on K.B. carcinoma (KB), 10 µg/mL (≈ 30.2 µM); in series [4] it was 14 µg/mL (≈ 42.2 µM). Moreover, the LD50 at 168 h in “acute toxicity” (setting [6]) was over 2500 mg/kg; in “acute toxicity” (setting [7]) it was over 3000 mg/kg. In addition, in series [5], the “inhibiting ratio (carcinoma weight), EAC” value is 55.

(Values after patent US4560679A, “Organosilicon compounds and antitumor agents containing the compound as effective component” (Sanwa Kagaku Kenkyusho Co. Ltd., priority 1982, dated 1985).)
